Results taken from ChEMBL document CHEMBL4266011 (ACS Med Chem Lett, 2018).

Key:
Carbonic anhydrase 7 = Carbonic anhydrase 7 (Homo sapiens, UniProt P43166)
Description: Inhibition of recombinant human CA7 preincubated for 15 mins prior to testing measured for 10 to 100 secs by phenol red based stopped-flow CO2 hydration assay

Carbonic anhydrase 14 = Carbonic anhydrase 14 (Homo sapiens, UniProt Q9ULX7)
Description: Inhibition of recombinant human CA14 preincubated for 15 mins prior to testing measured for 10 to 100 secs by phenol red based stopped-flow CO2 hydration assay

Carbonic anhydrase 4 = Carbonic anhydrase 4 (Homo sapiens, UniProt P22748)
Description: Inhibition of recombinant human CA4 preincubated for 15 mins prior to testing measured for 10 to 100 secs by phenol red based stopped-flow CO2 hydration assay

Carbonic anhydrase 12 = Carbonic anhydrase 12 (Homo sapiens, UniProt O43570)
Description: Inhibition of recombinant human CA12 preincubated for 15 mins prior to testing measured for 10 to 100 secs by phenol red based stopped-flow CO2 hydration assay

Carbonic anhydrase 3 = Carbonic anhydrase 3 (Homo sapiens, UniProt P07451)
Description: Inhibition of recombinant human CA3 preincubated for 15 mins prior to testing measured for 10 to 100 secs by phenol red based stopped-flow CO2 hydration assay

[1] = target: Carbonic anhydrase 5B, mitochondrial (Homo sapiens, UniProt Q9Y2D0)
Sequence of Carbonic anhydrase 5B, mitochondrial (Q9Y2D0 whole entry): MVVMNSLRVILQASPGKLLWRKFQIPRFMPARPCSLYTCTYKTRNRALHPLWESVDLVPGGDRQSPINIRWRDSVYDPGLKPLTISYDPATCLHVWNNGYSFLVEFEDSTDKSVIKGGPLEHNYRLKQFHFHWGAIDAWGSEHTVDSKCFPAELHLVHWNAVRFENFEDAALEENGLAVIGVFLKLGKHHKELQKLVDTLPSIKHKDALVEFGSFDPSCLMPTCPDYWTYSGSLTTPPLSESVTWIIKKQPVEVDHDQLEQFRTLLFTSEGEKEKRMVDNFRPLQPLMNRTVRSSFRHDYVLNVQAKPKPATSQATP
Description: Inhibition of recombinant human CA5b preincubated for 15 mins prior to testing measured for 10 to 100 secs by phenol red based stopped-flow CO2 hydration assay

Carbonic anhydrase 9 = Carbonic anhydrase 9 (Homo sapiens, UniProt Q16790)
[2] = target: Carbonic anhydrase 5A, mitochondrial (Homo sapiens, UniProt P35218)
Sequence of Carbonic anhydrase 5A, mitochondrial (P35218 whole entry): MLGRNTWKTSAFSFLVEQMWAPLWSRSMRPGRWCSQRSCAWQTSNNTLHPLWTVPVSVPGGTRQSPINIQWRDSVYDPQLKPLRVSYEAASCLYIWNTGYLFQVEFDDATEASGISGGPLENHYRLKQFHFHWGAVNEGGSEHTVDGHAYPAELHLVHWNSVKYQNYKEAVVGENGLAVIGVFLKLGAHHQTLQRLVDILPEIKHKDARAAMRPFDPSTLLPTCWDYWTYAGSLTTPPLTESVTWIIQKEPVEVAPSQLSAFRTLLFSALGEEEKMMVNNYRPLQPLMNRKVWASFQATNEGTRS
Description: Inhibition of recombinant human CA5a preincubated for 15 mins prior to testing measured for 10 to 100 secs by phenol red based stopped-flow CO2 hydration assay

Carbonic anhydrase 13 = Carbonic anhydrase 13 (Homo sapiens, UniProt Q8N1Q1)
Sequence of Carbonic anhydrase 13 (Q8N1Q1 whole entry): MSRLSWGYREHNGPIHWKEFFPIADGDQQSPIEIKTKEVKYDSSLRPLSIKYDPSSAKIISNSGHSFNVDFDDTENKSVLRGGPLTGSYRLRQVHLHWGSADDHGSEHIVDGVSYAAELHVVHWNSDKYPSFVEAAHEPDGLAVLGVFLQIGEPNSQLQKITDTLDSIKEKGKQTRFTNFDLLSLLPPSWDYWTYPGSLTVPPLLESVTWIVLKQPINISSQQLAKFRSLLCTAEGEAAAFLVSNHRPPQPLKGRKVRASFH
Description: Inhibition of recombinant human CA13 preincubated for 15 mins prior to testing measured for 10 to 100 secs by phenol red based stopped-flow CO2 hydration assay

Carbonic anhydrase 6 = Carbonic anhydrase 6 (Homo sapiens, UniProt P23280)
Sequence of Carbonic anhydrase 6 (P23280 whole entry): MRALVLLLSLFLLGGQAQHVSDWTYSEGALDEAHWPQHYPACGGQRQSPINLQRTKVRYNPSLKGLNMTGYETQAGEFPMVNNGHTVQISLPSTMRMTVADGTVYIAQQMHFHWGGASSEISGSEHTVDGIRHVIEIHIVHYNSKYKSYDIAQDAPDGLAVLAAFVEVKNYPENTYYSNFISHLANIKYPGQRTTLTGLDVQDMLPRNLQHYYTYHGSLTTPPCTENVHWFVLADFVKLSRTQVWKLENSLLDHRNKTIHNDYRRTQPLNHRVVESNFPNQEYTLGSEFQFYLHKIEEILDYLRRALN
Description: Inhibition of recombinant human CA6 preincubated for 15 mins prior to testing measured for 10 to 100 secs by phenol red based stopped-flow CO2 hydration assay

Sequence of Carbonic anhydrase 4 (P22748 whole entry): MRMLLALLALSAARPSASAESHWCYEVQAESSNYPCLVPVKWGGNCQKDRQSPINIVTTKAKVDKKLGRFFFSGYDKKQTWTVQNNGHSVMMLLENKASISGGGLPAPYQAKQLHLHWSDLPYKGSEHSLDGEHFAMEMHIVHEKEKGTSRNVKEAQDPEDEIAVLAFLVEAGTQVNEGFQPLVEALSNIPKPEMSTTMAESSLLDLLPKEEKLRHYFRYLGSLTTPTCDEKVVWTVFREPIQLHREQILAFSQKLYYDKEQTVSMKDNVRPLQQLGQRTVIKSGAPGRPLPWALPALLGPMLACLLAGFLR
Sequence of Carbonic anhydrase 3 (P07451 whole entry): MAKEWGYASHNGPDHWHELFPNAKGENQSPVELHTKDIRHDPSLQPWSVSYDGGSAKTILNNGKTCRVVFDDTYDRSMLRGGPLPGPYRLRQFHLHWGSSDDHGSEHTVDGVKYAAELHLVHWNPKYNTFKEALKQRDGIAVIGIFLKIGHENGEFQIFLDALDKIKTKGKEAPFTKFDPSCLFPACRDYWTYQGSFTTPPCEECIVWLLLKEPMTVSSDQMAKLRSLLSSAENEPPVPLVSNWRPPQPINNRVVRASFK
Sequence of Carbonic anhydrase 7 (P43166 whole entry): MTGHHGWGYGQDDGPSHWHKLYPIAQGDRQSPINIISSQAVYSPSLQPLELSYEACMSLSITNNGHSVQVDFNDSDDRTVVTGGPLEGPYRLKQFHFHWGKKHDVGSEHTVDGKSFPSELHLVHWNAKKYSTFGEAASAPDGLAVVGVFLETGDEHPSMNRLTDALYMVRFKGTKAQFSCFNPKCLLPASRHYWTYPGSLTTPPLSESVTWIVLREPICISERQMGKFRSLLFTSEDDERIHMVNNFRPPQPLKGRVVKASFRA
Sequence of Carbonic anhydrase 14 (Q9ULX7 whole entry): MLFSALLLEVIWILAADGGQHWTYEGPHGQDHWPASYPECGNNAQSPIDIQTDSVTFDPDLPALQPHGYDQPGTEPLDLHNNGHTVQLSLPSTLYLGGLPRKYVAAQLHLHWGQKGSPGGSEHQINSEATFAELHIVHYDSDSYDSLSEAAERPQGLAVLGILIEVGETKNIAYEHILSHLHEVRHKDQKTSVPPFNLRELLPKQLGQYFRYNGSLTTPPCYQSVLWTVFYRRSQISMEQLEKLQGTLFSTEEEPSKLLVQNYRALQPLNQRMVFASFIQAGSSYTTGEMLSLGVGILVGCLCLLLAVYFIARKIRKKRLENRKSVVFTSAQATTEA
Sequence of Carbonic anhydrase 12 (O43570 whole entry): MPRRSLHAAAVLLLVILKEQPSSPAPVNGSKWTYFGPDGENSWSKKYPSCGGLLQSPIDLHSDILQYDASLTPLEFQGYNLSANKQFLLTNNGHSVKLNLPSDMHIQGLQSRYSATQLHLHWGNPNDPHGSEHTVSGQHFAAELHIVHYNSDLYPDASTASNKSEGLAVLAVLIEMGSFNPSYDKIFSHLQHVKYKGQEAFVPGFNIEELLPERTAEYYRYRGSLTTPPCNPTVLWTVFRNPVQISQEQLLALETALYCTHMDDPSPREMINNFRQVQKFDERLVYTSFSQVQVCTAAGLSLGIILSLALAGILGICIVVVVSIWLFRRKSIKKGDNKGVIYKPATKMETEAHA

Question: What does the source list for `NC(N)=Nc1nc(CSCCC(N)=NS(N)(=O)=O)cs1` [FAMOTIDINE]?
Answer: Ki (Carbonic anhydrase 7): 3 nM; Ki (Carbonic anhydrase 14): 677 nM; Ki (Carbonic anhydrase 4): 939 nM; Ki (Carbonic anhydrase 12): 45.3 nM; Ki (Carbonic anhydrase 3): > 10000 nM; Ki [1]: 5330 nM; Ki (Carbonic anhydrase 9): 126 nM; Ki [2]: 1430 nM; Ki (Carbonic anhydrase 13): 172 nM; Ki (Carbonic anhydrase 6): 98.2 nM
